PubChem BioAssay (NCI)
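1) Cells in 96-well plates. 2) Compound, 48 h, 5 concentrations. 3) Linear interpolation between surrounding doses. 4) Unreached endpoint = highest concentration. TGI: total growth inhibition.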

Columns and labels:
Experiment in all cases: growth of human tumour cells (NCI), 48 h
CAKI-1 renal = tested on: CAKI-1 renal
DU-145 prostate = tested on: DU-145 prostate
EKVX NSCLC = tested on: EKVX NSCLC
HCT-116 colon = tested on: HCT-116 colon
HL-60(TB) leukemia = tested on: HL-60(TB) leukemia
HOP-92 NSCLC = tested on: HOP-92 NSCLC
HT29 colon = tested on: HT29 colon
MCF7 breast = tested on: MCF7 breast
MDA-MB-231 breast = tested on: MDA-MB-231 breast
MDA-N = tested on: MDA-N
NCI-H23 lung = tested on: NCI-H23 lung
OVCAR-3 ovarian = tested on: OVCAR-3 ovarian
OVCAR-4 ovarian = tested on: OVCAR-4 ovarian
OVCAR-8 ovarian = tested on: OVCAR-8 ovarian
SK-MEL-28 melanoma = tested on: SK-MEL-28 melanoma
SK-OV-3 ovarian = tested on: SK-OV-3 ovarian
SN12C renal = tested on: SN12C renal
SR leukemia = tested on: SR leukemia
SW-620 colon = tested on: SW-620 colon
UACC-257 melanoma = tested on: UACC-257 melanoma

Measured: TGI

NC(CCCCCCCCCCP(=O)(O)O)C(=O)O (stereo not given)
> 100 µM: all assays above
